Experimental data as given in patent publication US10793576B2, “Compound used as Bruton's tyrosine kinase inhibitor and preparation method and application thereof” (Chengdu Brilliant Pharmaceutical Co., LTD., priority 2017, dated 2020).

Target: BTK kinase (Homo sapiens (Human), UniProt Q06187)
Assay: In vitro assay for the inhibition of BTK kinase activity (Mobility-Shift Assay)
Type: biochemical
Source text: Mobility-Shift Assay, which is microfluidic chip technology, applies the basic concept of capillary electrophoresis to microfluidic environments. The substrate used for the experiment is a polypeptide with a fluorescent label. Under the action of enzyme in the reaction system, the substrate is transformed into a product, and the charge the substrate carries also changes accordingly. The use of the charge difference between the substrate and the product involved in Mobility-Shift Assay achieves the separating of the two, and they are tested respectively. The test results are expressed by conversion rates.
(3) 100% DMSO was added to the positive control well and the negative control well, respectively;

Sequence of BTK kinase (Q06187 whole entry): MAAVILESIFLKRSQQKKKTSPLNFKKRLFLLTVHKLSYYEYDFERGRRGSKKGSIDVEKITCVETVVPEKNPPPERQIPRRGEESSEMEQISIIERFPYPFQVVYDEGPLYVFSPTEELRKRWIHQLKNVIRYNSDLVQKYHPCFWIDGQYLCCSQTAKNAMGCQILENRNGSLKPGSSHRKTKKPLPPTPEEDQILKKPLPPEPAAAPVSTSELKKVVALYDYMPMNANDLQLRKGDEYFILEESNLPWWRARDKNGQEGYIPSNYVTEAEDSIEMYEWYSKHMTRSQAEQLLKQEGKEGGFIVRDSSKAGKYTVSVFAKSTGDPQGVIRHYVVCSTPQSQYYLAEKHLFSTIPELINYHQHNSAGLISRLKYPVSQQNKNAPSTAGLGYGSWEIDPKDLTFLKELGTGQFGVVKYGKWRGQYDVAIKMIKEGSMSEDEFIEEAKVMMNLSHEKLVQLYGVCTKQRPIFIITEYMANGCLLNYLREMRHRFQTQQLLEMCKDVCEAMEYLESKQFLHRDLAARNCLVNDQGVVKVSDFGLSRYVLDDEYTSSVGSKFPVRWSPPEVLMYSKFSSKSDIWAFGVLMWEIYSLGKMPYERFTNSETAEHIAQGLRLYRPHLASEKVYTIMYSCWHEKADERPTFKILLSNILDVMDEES

## C=CC(=O)N1CCC2CC21c1nc(-c2ccc(Oc3ccccc3)cc2)c2c(N)nccn12 (stereo not shown) [Example 102]
  IC50: 175 nM

## CC#CC(=O)N1CCC2(CC1)CC(c1nc(-c3ccc(C(=O)Nc4ccccn4)cc3)c3c(N)nccn13)CO2 (stereo not shown) [Example 27]
  IC50: 673 nM

## CC#CC(=O)N1CC2CCCC2C1c1nc(-c2ccc(C(C)(O)c3ccccc3)cc2)c2c(N)nccn12 (stereo not shown) [Example 78]
  IC50: 18.4 nM

## C=CC(=O)N1C2CN[C@@H](C2)C1c1nc(-c2ccc(C(=O)Nc3cc(Cl)ccn3)cc2)c2c(N)nccn12 (stereo partly shown) [Example 72]
  IC50: 97 nM

## C=CC(=O)N1C2C[C@@H](C1c1nc(-c3ccc(C(C)(O)c4ccccc4)cc3)c3c(N)nccn13)N(C(C)=O)C2 (stereo partly shown) [Example 90]
  IC50: 79 nM

## C=CC(=O)N1CCC2(CC2c2nc(-c3ccc(C(=O)Nc4ccccn4)cc3)c3c(N)nccn23)C1 (stereo not shown) [Example 30]
  IC50: 724 nM

## CC#CC(=O)N1C(c2nc(-c3ccc(C(=O)Nc4cc(C)ccn4)cc3)c3c(N)nccn23)CC2CC21 (stereo not shown) [Example 65]
  IC50: 58 nM

## C=CC(=O)N1C[C@H]2[C@@H]([C@H]1c1nc(-c3ccc(C(C)(O)c4ccccc4)cc3)c3c(N)nccn13)C2(C)C (stereo partly shown) [Example 75]
  IC50: 57 nM

## CC#CC(=O)N1CC2CCC2(c2nc(-c3ccc(C(=O)Nc4ccccn4)cc3)c3c(N)nccn23)C1 (stereo not shown) [Example 35]
  IC50: 67 nM

## C=CC(=O)N1CC2CCC1(c1nc(-c3ccc(C(=O)Nc4ccccn4)cc3)c3c(N)nccn13)C2 (stereo not shown) [Example 122, 4-(3-(2-acryloyl-2-azabicyclo[2.2.1]heptan-1-yl)-8-aminoimidazo[1,5-a]pyrazin-1-yl)-N-(pyridin-2-yl)benzamide]
  IC50: 49 nM

## CC#CC(=O)N1C(c2nc(-c3ccc(C(C)(O)c4ccccc4)cc3)c3c(N)nccn23)CC2CC21 (stereo not shown) [Example 82]
  IC50: 382 nM

## C=CC(=O)N1C(c2nc(-c3ccc(C(=O)Nc4cc(C)ccn4)cc3)c3c(N)nccn23)CC2CC21 (stereo not shown) [Example 64]
  IC50: 87 nM

## C=CC(=O)N1CC2C[C@H]1C(c1nc(-c3ccc(C(=O)Nc4ccccn4)cc3)c3c(N)nccn13)N2C(C)=O (stereo partly shown) [Example 20]
  IC50: 372 nM

## C=CC(=O)NC12CC3CC(C1)CC(c1nc(-c4ccc(C(=O)Nc5ccccn5)cc4)c4c(N)nccn14)(C3)C2 [Example 28]
  IC50: 124 nM

## CC#CC(=O)N1CC2C[C@H]1C(c1nc(-c3ccc(C(=O)Nc4ccccn4)cc3)c3c(N)nccn13)N2 (stereo partly shown) [Example 21]
  IC50: 672 nM

## CC#CC(=O)N1CC2(CCNCC2)CC1c1nc(-c2ccc(C(=O)Nc3ccccn3)cc2)c2c(N)nccn12 (stereo not shown) [Example 37]
  IC50: 46 nM

## C=CC(=O)N1C[C@@H]2C[C@]1(c1nc(-c3ccc(C(=O)Nc4ccccn4)cc3)c3c(N)nccn13)CCO2 [Example 7]
  IC50: 155 nM

## CC#CC(=O)N1C2C[C@@H](C1c1nc(-c3ccc(C(=O)Nc4cc(C(F)(F)F)ccn4)cc3)c3c(N)nccn13)N(C(C)C)C2 (stereo partly shown) [Example 57]
  IC50: 59 nM

## CC#CC(=O)N1CCC2CC21c1nc(-c2ccc(C(C)(O)c3ccccc3)cc2)c2c(N)nccn12 (stereo not shown) [Example 83]
  IC50: 46 nM

## CC#CC(=O)N1C(c2nc(-c3ccc(Oc4ccccc4)cc3)c3c(N)nccn23)CC2CC21 (stereo not shown) [Example 101]
  IC50: 77 nM

## CC#CC(=O)N1C2CC[C@@H](C2)C1c1nc(-c2ccc(C(=O)Nc3cc(C)ccn3)cc2)c2c(N)nccn12 (stereo partly shown) [Example 63]
  IC50: 57 nM

## C=CC(=O)N1CC2CCC2(c2nc(-c3ccc(C(=O)Nc4ccccn4)cc3)c3c(N)nccn23)C1 (stereo not shown) [Example 34]
  IC50: 66 nM

## C=CC(=O)N1CCC2CC21c1nc(-c2ccc(C(=O)Nc3cc(C(F)(F)F)ccn3)cc2)c2c(N)nccn12 (stereo not shown) [Example 58]
  IC50: 78 nM

## C=CC(=O)N1CCC2(CC1)CC(c1nc(-c3ccc(C(=O)Nc4ccccn4)cc3)c3c(N)nccn13)CO2 (stereo not shown) [Example 26]
  IC50: 477 nM

## C=CC(=O)N1CC2(CCNCC2)CC1c1nc(-c2ccc(C(=O)Nc3ccccn3)cc2)c2c(N)nccn12 (stereo not shown) [Example 36]
  IC50: 93 nM
